From patent US11375716B2, “Acetyl-CoA carboxylase modulators” (Monsanto Technology LLC, priority 2013, dated 2022)
Like-named read-outs stand apart in the source and are kept apart here.

Columns and labels:
[1] = target: Ustilago maydis acetyl CoA carboxylase (ACCase) (Ustilago maydis, UniProt A0A0D1DYD5); assay: ACCase enzymatic assay (PK/LDH-coupled, NADH OD340); assay type: biochemical
Experimental: Ustilago maydis acetyl CoA carboxylase (ACCase) was cloned, expressed, and purified as described (Weatherly et al, Biochem. J., 2004) and the test compounds were tested in a 96-well plate format. Primary in vitro screening consisted of obtaining dose response data at 100, 33, 10, and 1 μM inhibitor. Actives in the primary screen were re-tested to establish IC50 values.
Direct detection of the conversion of acetyl CoA to malonyl CoA by ACCase was not feasible, but during this process ATP is converted to ADP which allowed for detection through a standard reaction coupling with ADP recycling to the oxidation of NADH. Thus, ACCase activity was measured via kinetic OD340 measurements of the conversion of NADH to NAD in a coupled reaction involving the conversion of phosphoenolpyruvate (PEP) to lactate.
The complete 200 ul reaction mixture contained 52.5 mM HEPES (pH8), 2.625 mM MgCl2, 1 mM ATP, 0.525 mM DTT, 11 mM NaHCO3, 1% DMSO with or without inhibitor, lx pyruvate kinase/lactate dehydrogenase (PK/LDH), 0.3 mM NADH, 0.5 mM PEP, and 5 μg ACCase. The reactions were incubated at 30° C. for 10 minutes and then initiated by the addition of 0.33 mM acetyl CoA. The initiated reactions were read immediately via plate reader at OD340 and kinetic readings were acquired every 20 s for 15 minutes while keeping the temperature at 30° C.
A slope of the kinetic curve was determined by using the 2 to 7 minute data which was then calculated as percent inhibition relative to the no inhibitor control.
The primary screens were conducted in duplicate and the IC50's conducted in triplicate. Averages were reported along with standard deviation calculation to generate error bars.
Each plate contained its own controls and consisted of a DMSO only control, 5-fold titration series of soraphen from 2 μM to 3.2 nM, and an ADP coupled reaction control.
In order to effectively screen out non-specific modulators of pyruvate kinase and lactate dehydrogenase (the coupled portion of the reaction), a PK/LDH inhibition test was developed. The complete 200 μl reaction mixture contained 52.5 mM HEPES (pH8), 2.625 mM MgCl2, 0.525 mM DTT, 11 mM NaHCO3, 1% DMSO with or without inhibitor, 1× pyruvate kinase/lactate dehydrogenase (PK/LDH), 0.3 mM NADH, and 0.5 mM PEP. The reactions were incubated at 30° C. for 10 minutes and then initiated by the addition of 66 μM ADP. The initiated reactions were read immediately via plate reader at OD340 and kinetic readings were acquired every 20 s for 15 minutes while remaining at 30° C.
A slope of the kinetic curve was determined by using the 2 to 7 minute data which was then calculated as percent inhibition relative to the no inhibitor control. Those compounds which had no significant PK/LDH inhibition at or above the IC50 in the ACCase assay, were considered to be valid modulators of only ACCase.

Botrytis cinerea = assay: Fungal growth inhibition assay, B. cinerea; assay type: cell-based
Source text: Spores were isolated from previously sub-cultured plates of Botrytis cinerea, Phytophthora capsici, Fusarium moniliforme, Fusarium viguliforme, Collectotrichum graminicola, and Diplodia maydis. All spores were filtered and collected in a sterile glass bowl to isolate the spores from the mycelia. The isolation and sub-culture plate condition for each pathogen is described below.
Spore isolation for B. cinerea: A 2-3 week old V8 (17%)+CaCO3 (3 g/L)+20 g agar plate was removed from room temperature and the mycelia were treated with 5-10 ml of filter sterilized Triton X 100 (0.05%). The mycelia were scraped to re-suspend the spores. The spores were then collected in a sterile filter bowl containing a fluted piece of filter paper and poured into a conical tube.
After spore isolation, pathogen spores were counted on a hemocytometer to calculate the spores/ml. In 17% V8 liquid media containing 3 g/L CaCO3, isolated spores were diluted to individual concentrations based on the growth curves at 48 hours of each pathogen. […]
In a 96-well plate the spore solution, chemistries, and controls were combined to make the final solution concentrations mentioned above. Upon addition of the chemistry, an OD600 reading was done to assess chemical precipitation. […] Plate readings were repeated at 24 and 48 hrs. […]

[2] = Table 1A, read-out: ACCase Inhibitory Activity IC50
[3] = Table 1B, racemates and single enantiomers, read-out: ACCase Inhibitory Activity of Racemic Mixtures and Single Enantiomers IC50

Chain of Ustilago maydis acetyl CoA carboxylase (ACCase) (A0A0D1DYD5 1-2185): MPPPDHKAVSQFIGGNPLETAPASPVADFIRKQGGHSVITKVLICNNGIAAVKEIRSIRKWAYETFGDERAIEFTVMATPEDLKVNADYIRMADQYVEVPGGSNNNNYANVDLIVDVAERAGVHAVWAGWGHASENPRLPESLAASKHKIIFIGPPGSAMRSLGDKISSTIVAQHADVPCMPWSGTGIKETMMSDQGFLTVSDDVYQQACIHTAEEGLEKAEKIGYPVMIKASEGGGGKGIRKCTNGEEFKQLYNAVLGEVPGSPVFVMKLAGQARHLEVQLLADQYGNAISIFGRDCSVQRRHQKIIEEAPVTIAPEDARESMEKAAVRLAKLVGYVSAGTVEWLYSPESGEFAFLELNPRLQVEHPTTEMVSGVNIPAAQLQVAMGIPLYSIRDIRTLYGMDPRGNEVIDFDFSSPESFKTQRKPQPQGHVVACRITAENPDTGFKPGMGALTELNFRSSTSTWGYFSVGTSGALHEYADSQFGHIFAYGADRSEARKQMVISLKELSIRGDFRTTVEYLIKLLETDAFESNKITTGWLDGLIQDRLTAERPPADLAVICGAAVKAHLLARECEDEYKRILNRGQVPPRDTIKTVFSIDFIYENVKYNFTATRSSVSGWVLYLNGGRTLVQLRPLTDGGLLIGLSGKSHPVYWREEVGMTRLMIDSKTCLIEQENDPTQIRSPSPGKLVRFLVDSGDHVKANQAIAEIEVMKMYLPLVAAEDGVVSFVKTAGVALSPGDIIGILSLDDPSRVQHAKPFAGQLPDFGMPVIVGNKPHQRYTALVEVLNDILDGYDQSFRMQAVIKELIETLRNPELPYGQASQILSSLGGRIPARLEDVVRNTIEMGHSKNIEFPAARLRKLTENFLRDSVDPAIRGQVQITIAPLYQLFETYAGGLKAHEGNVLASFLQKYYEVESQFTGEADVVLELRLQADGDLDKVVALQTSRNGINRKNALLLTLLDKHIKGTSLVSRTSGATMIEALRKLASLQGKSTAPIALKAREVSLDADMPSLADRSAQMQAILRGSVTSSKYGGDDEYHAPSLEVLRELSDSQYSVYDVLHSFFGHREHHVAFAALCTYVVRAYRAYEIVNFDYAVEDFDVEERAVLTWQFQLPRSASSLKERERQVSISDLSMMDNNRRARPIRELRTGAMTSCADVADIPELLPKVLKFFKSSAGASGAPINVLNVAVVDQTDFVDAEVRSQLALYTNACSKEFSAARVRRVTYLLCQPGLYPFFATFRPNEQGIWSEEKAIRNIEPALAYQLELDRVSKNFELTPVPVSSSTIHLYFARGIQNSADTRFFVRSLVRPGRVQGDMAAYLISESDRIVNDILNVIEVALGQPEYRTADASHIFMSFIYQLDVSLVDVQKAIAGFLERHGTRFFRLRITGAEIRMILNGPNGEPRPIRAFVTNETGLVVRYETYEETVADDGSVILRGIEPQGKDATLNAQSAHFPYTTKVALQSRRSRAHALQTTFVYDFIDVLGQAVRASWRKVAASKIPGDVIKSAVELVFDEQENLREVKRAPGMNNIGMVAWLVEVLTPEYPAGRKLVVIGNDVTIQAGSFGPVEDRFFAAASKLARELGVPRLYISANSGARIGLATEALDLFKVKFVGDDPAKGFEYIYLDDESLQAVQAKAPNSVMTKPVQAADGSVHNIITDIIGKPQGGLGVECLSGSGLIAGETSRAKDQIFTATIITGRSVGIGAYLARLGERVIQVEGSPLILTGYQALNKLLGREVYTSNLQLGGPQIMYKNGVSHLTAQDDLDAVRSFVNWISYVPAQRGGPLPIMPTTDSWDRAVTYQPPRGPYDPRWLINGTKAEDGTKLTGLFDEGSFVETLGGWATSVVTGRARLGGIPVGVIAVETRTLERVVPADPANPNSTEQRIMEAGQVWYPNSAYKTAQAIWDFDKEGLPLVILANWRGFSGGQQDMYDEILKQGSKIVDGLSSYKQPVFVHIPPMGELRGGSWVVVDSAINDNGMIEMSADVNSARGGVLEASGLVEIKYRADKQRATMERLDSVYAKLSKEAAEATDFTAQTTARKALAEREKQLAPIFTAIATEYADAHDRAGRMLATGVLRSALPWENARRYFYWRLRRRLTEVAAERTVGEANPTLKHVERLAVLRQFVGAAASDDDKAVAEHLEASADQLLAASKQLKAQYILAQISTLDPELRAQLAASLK

Compound | IC50 [1, 2] [nM] | B. cinerea % growth inhibition at 48 hours (Botrytis cinerea; 2 ppm) [%] | B. cinerea % growth inhibition at 48 hours (Botrytis cinerea; 10 ppm) [%] | IC50 [1, 3] [nM]
2-((3-cyano-4-(4-methoxyphenyl)-6-(1-oxidothiophen-2-yl)pyridin-2-yl)oxy)-2-phenylacetic acid [Formula Ia-xxviii] | 196 | 14 | 27 | –
N#Cc1c(-c2cccs2)cc(-c2cccs2)nc1SC(C(=O)O)c1ccccc1 (racemic) [Formula Ia-iii, 2-((3-cyano-4,6-di(thiophen-2-yl)pyridin-2-yl)thio)-2-phenylacetic acid] | 616 | – | – | 439
COc1ccc(-c2cc(-c3cccs3)nc(SC(C(=O)O)c3ccccc3)c2C#N)cc1 (racemic) [Formula Ia-xiv, 2-((3-cyano-4-(4-methoxyphenyl)-6-(thiophen-2-yl)pyridin-2-yl)thio)-2-phenylacetic acid] | 60 | – | – | –
N#Cc1c(C(F)(F)F)cc(-c2cccs2)nc1S[C@H](C(=O)O)c1ccccc1 (single isomer, unassigned) [Formula Ia-ii-e2, 2-((3-cyano-6-(thiophen-2-yl)-4-(trifluoromethyl)pyridin-2-yl)thio)-2-phenylacetic acid] | – | – | – | 1210
